Reference: article PMC10082216 (Nature Communications, 2023)
Where two headings read alike, the source gives them in different places.

Legend:
[1] = read-out: Cmax in humans; at the lowest dose; ref not given; cited from earlier work
[2] = system: F32-TEM P. falciparum strain; experiment: Resistance selection by TD-6450 drug pulses, dose-response on F32-TEM; format: cell-based, Plasmodium falciparum; details: for Parental strain 1 (viability) / Parental strain 2 (viability) / Parental strain 3 (viability): No drug pulses; for IC50: Plasmodium falciparum
Description: To assess the ability of P. falciparum to develop resistance against TD-6450, we exposed F32-TEM line parasites, a reference artemisinin-sensitive P. falciparum strain[45], to the drug at 3 µM concentration for three days. We confirmed the absence of parasites on Giemsa-stained smears following exposure, then checked daily for parasite re-appearance in a drug-free culture flask.

healthy subjects = experiment: TD-6450 phase I clinical study (SAD/MAD): safety and tolerability; format: in vivo, human
Text: This was a phase I, double-blinded, randomized, placebo-controlled, Single Ascending Dose (SAD) and Multiple Ascending Dose (MAD) study to evaluate the safety and tolerability of TD-6450 in healthy subjects (primary objective) and the pharmacokinetics (secondary objective). The study is available in the website clinicaltrial.gov (identifier NCT02022306), it started on February the 4th 2014 (first subject enrolled) and was concluded on August the 18th 2014 (last subject concluded), in the Healthcare Discoveries (a subsidiary of ICON Development Solutions) in San Antonio, Texas, USA. Healthy, non-smoking subjects with no history of significant medical conditions, with a BMI included between 18 and 30 kg/m^2, who weight at least 50 kg, between 18 and 60 years old, were selected for this study. Subjects were able and willing to give an informed consent. No bias was reported in the selection process. The protocol and all amendments for this study and all accompanying material that was provided to subjects (including advertisements, subject’s information sheets, and descriptions of the study used to obtain informed consent) were submitted by the investigator to the centralized Institutional Review Board (IRB), namely the IntegReview, established in 1999 at Austin (Texas, U.S.A.) and acquired by Advarra in 2020. Documented approval was obtained before the study was started, on March the 28th 2014. This study was conducted in accordance with the protocol, the principles of the International Conference on Harmonization of Technical Requirements for Registration of Pharmaceuticals for Human Use (ICH) Guideline for Good Clinical Practice (GCP), the United States Code of Federal Regulations, the principles of the World Medical Association Declaration of Helsinki, Ethical Principles for Medical Research Involving Human Subjects, and all applicable regulatory requirement.
Primary and secondary outcomes were pre-defined as follows: Safety and tolerability as a primary outcome, pharmacokinetics as a secondary outcome. Safety and tolerability were evaluated using standard measures, including adverse event (AE) monitoring, clinical laboratory tests (hematology, serum chemistry, coagulation, and urinalysis), vital signs, physical examinations, and 12-lead electrocardiograms (ECGs). […] Pharmacokinetics were evaluated by the collection of blood samples from each subject at following time points: predose (within 30 min before dosing, only in day 1 60 min before dosing), and 0.5,1,2,3,4,6,8 and 12 hours after dosing.
This study was conducted in two parts, Part A (SAD) and Part B (MAD). For the Part A, the age of enrolled subjects ranged from 20 to 60 years, with a mean age range of 32.1 to 46.2 years. Most subjects were male (73 total subjects) and most were white (55 subjects) or black (22 subjects). For Part B of the study, ages ranged from 23 to 60 years with a similar mean age across treatment groups. Most subjects were male (25 total subjects) and all were either white (18 subjects) or black (12 subjects). For each part of the study, the mean body mass index (BMI) and creatinine clearance were similar across treatment groups. […] Part A: Healthy subjects were sequentially enrolled and randomly assigned to each dose cohort (up to 10 dose-ascending cohorts were planned, including a fed arm in the food effect cohort) to receive either a single dose of TD-6450 or placebo. For each dose cohort, 8 subjects were randomized in a 3:1 ratio (6 subjects received TD-6450 and 2 subjects received placebo). The starting dose of TD-6450 was 0.5 mg with a planned maximum dose of 1000 mg. Upon review of the 500-mg cohort PK data, the decision was made to not escalate to the 1000-mg cohort because of exposure saturation at ≥ 500 mg. The following doses were administered: 0.5 mg, 1.5 mg, 5 mg, 15 mg, 30 mg, 60 mg, 120 mg, 240 mg, and 500 mg. […]

[3] = system: stage V gametocytes of P. falciparum (3D7 pULG8-GFP strain); experiment: Post-screening validation with 96-well plate microsphiltration (Paris); format: cell-based, Plasmodium falciparum; details: eight-hour exposure

C[C@H]1Cc2c([nH]c3cc(Cl)c(F)cc23)[C@@]2(N1)C(=O)Nc1ccc(Cl)cc12 [NITD609, cipargamin]
Cmax [1]: 630 nM

CNC(=O)N1C[C@@H](C)N(c2ccc(C(=O)Nc3ccc(-c4ccc(-c5c[nH]c([C@@H]6CCCN6C(=O)[C@@H](NC(=O)OC)C(C)C)n5)cc4)c(OC(F)(F)F)c3)cn2)C[C@@H]1C [TD-6450]
Parental strain 1 (viability) ([2]; 5 µM): 1.88
Parental strain 2 (viability) ([2]; 5 µM): 1.225
Parental strain 3 (viability) ([2]; 5 µM): 1.766
Parental strain 1 (viability) ([2]; 10 µM): 1.472
Parental strain 2 (viability) ([2]; 10 µM): 0.6944
Parental strain 3 (viability) ([2]; 10 µM): 1.083
Parental strain 1 (viability) ([2]; 20 µM): 1.826
Parental strain 2 (viability) ([2]; 20 µM): 0.509
Parental strain 3 (viability) ([2]; 20 µM): 0.9281
IC50 ([2]; F32, read-out: IC50, F32-TEM 5 pulses): 700 nM
IC50 ([2]; F32, read-out: IC50, F32-TEM 10 pulses): 300 nM
IC50 ([2]; F32, read-out: IC50, F32-TEM P.S.): 200 nM
fold shift in IC50 ([2]; after five drug-killing pulses (3 µM, three days)): 3.5 fold
fold shift in IC50 ([2]; after ten drug-killing pulses (3 µM, three days)): 1.5 fold
At least one AE N (%) (healthy subjects; MAD 60 mg once daily 14 days): 4 (50.0) N (%)
At least one SAE N (%) (healthy subjects; MAD 60 mg once daily 14 days): 0 (0.0) N (%)
Death N (%) (healthy subjects; MAD 60 mg once daily 14 days): 0 (0.0) N (%)
Discontinuation due to an AE N (%) (healthy subjects; MAD 60 mg once daily 14 days): 0 (0.0) N (%)
At least one AE N (%) (healthy subjects; MAD 120 mg once daily 14 days): 3 (37.5) N (%)
At least one SAE N (%) (healthy subjects; MAD 120 mg once daily 14 days): 0 (0.0) N (%)
Death N (%) (healthy subjects; MAD 120 mg once daily 14 days): 0 (0.0) N (%)
Discontinuation due to an AE N (%) (healthy subjects; MAD 120 mg once daily 14 days): 0 (0.0) N (%)
At least one AE N (%) (healthy subjects; MAD 240 mg once daily 14 days): 3 (37.5) N (%)
At least one SAE N (%) (healthy subjects; MAD 240 mg once daily 14 days): 0 (0.0) N (%)
Death N (%) (healthy subjects; MAD 240 mg once daily 14 days): 0 (0.0) N (%)
Discontinuation due to an AE N (%) (healthy subjects; MAD 240 mg once daily 14 days): 0 (0.0) N (%)
At least one AE N (%) (healthy subjects; SAD 0.5 mg): 3 (50.0) N (%)
At least one SAE N (%) (healthy subjects; SAD 0.5 mg): 0 (0.0) N (%)
Death N (%) (healthy subjects; SAD 0.5 mg): 0 (0.0) N (%)
Discontinuation due to an AE N (%) (healthy subjects; SAD 0.5 mg): 0 (0.0) N (%)
At least one AE N (%) (healthy subjects; SAD 1.5 mg): 3 (50.0) N (%)
At least one SAE N (%) (healthy subjects; SAD 1.5 mg): 0 (0.0) N (%)
Death N (%) (healthy subjects; SAD 1.5 mg): 0 (0.0) N (%)
Discontinuation due to an AE N (%) (healthy subjects; SAD 1.5 mg): 0 (0.0) N (%)
At least one AE N (%) (healthy subjects; SAD 5 mg): 0 (0.0) N (%)
At least one SAE N (%) (healthy subjects; SAD 5 mg): 0 (0.0) N (%)
Death N (%) (healthy subjects; SAD 5 mg): 0 (0.0) N (%)
Discontinuation due to an AE N (%) (healthy subjects; SAD 5 mg): 0 (0.0) N (%)
At least one AE N (%) (healthy subjects; SAD 15 mg): 1 (16.7) N (%)
At least one SAE N (%) (healthy subjects; SAD 15 mg): 0 (0.0) N (%)
Death N (%) (healthy subjects; SAD 15 mg): 0 (0.0) N (%)
Discontinuation due to an AE N (%) (healthy subjects; SAD 15 mg): 0 (0.0) N (%)
At least one AE N (%) (healthy subjects; SAD 30 mg): 1 (16.7) N (%)
At least one SAE N (%) (healthy subjects; SAD 30 mg): 0 (0.0) N (%)
Death N (%) (healthy subjects; SAD 30 mg): 0 (0.0) N (%)
Discontinuation due to an AE N (%) (healthy subjects; SAD 30 mg): 0 (0.0) N (%)
At least one AE N (%) (healthy subjects; SAD 60 mg): 0 (0.0) N (%)
At least one SAE N (%) (healthy subjects; SAD 60 mg): 0 (0.0) N (%)
Death N (%) (healthy subjects; SAD 60 mg): 0 (0.0) N (%)
Discontinuation due to an AE N (%) (healthy subjects; SAD 60 mg): 0 (0.0) N (%)
At least one AE N (%) (healthy subjects; SAD 120 mg): 1 (16.7) N (%)
At least one SAE N (%) (healthy subjects; SAD 120 mg): 0 (0.0) N (%)
Death N (%) (healthy subjects; SAD 120 mg): 0 (0.0) N (%)
Discontinuation due to an AE N (%) (healthy subjects; SAD 120 mg): 0 (0.0) N (%)
At least one AE N (%) (healthy subjects; SAD 240 mg): 0 (0.0) N (%)
At least one SAE N (%) (healthy subjects; SAD 240 mg): 0 (0.0) N (%)
Death N (%) (healthy subjects; SAD 240 mg): 0 (0.0) N (%)
Discontinuation due to an AE N (%) (healthy subjects; SAD 240 mg): 0 (0.0) N (%)
At least one AE N (%) (healthy subjects; SAD 500 mg): 2 (33.3) N (%)
At least one SAE N (%) (healthy subjects; SAD 500 mg): 0 (0.0) N (%)
Death N (%) (healthy subjects; SAD 500 mg): 0 (0.0) N (%)
Discontinuation due to an AE N (%) (healthy subjects; SAD 500 mg): 0 (0.0) N (%)
severe adverse events in Phase 1 study (healthy subjects; single or multiple doses): no severe adverse events
concentration that significantly stiffens mature gametocytes [3]: 200 nM
